# Columns and labels:
# [1] = target: HCV RNA-directed RNA polymerase (Hepatitis C virus genotype 1a, UniProt P27958); test: Primed homopolymeric RNA (poly-G) synthesis assay; type: biochemical; conditions: 10 μM
# Method: FIGS. 9A-C. Specificity of anti-HBV RNAseH compounds. (FIG. 9A) Inhibition of HBV genotype D RNAseH by irrelevant compounds at 10 μM in the oligonucleotide-directed RNAseH assay. Compound #4 was employed as an example HBV RNAseH inhibitor. […] The ability of compounds #5, 6 and 8 to inhibit production of poly-G by the HCV RNA-directed RNA polymerase was measured in a primed homopolymeric RNA synthesis assay (Cao, et al., 2011. The compounds were employed at 10 μM. DMSO, vehicle control. (FIG. 9C) Dose-responsiveness of HBV RNAseH inhibition. The effects of compounds #6, 8, and 12 on the RNAseH activity of HRHPL (genotype D) were measured at concentrations ranging from 0.5 to 50 μM. The dose-response profile is plotted for compound #12.
# HBV genotype A = conditions: 10 μM; Tavis et al., 2013; cited from earlier work
# HBV genotype D = test: HBV replication inhibition in Huh7 cells, Southern blot, genotype D; type: cell-based, Hepatitis B virus; conditions: 10 μM
# Method: Huh7 cells were maintained in Dulbecco's modified Eagle's medium with 10% fetal bovine serum at 37° C. in 5% CO2. Cells were seeded into 60 mm dishes and transfected at 70% confluency with 2.6 μg of plasmids using TransIT-LT1 (Mirus, Inc.). Test compounds were added the morning following transfection at 10 or 50 μM, and fresh medium containing the compounds was provided every 1-2 days. Four or five days post-transfection HBV cores were isolated by lysis of the cells in 10 mM Tris pH 7.5, 1 mM EDTA, 0.25% NP40, 50 mM NaCl, and 8% sucrose followed by sedimentation through a 30% sucrose cushion as described (Travis, et al., 1998). […] The nucleic acid samples were resolved by electrophoresis on 1.2% agarose gels and detected by Southern blotting with ^32P-labeled HBV DNA as a probe.
# Finally, the inventors asked whether HBV RNAseH inhibitors could block HBV replication in culture. […] Replicate nucleic acid aliquots were mock treated or treated with DNAse-free E. coli RNAseH to destroy RNA:DNA heteroduplexes, and then HBV DNAs were detected by Southern blotting. […]
# Inhibition of HBV replication by βTJ was measured as recently described (Tavis et al., 2013). […] The nucleic acids were resolved by electrophoresis on 1.2% agarose gels and HBV DNAs were detected by Southern blotting with ^32P-labeled double-stranded HBV DNA as a probe to detect both the plus- and minus-polarity HBV DNA strands. […]
# [2] = target: T1, HBV genotype D RNAseH (HRHPL) (Hepatitis B virus genotype D subtype ayw, UniProt P03156, INS679M); conditions: Tavis et al., 2013; read-out: IC50 against the HBV RNAseH, previously reported; cited from earlier work
# T1 construct: HRHPL contains HBV genotype D (Genbank V01460) polymerase residues 684-845; made in house; host or cells: E. coli BL21 codon+
# T1 sequence (P03156 680-832, added parts left off, stated change not applied): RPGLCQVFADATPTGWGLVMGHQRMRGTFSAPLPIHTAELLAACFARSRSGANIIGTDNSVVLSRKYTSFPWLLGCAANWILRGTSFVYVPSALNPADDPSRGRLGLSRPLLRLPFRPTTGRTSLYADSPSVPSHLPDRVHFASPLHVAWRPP
# CEM-SS cells = conditions: cited from earlier work
# HIV = conditions: cited from earlier work
# Huh7 cells = test: CytoTox-Glo membrane integrity assay in Huh7 cells; type: cell-based, human; conditions: four days
# Method: Toxicity of βTJ in Huh7 cells was determined with 3-(4,5-dimethylthiazol-2-yl)-5-β-carboxymethoxyphenyl)-2-(4-sulfophenyl)-2H-tetrazolium (MTS) assays that measures mitochondrial dysfunction employing the Cell Titre 96 aqueous nonradioactive cell proliferation assay (Promega), and with the CytoTox-Glo assay (Promega) that reflects cellular integrity. Huh7 and HepG2 cells (1×10^4) were plated in 96-well tissue culture plates, medium containing βTJ at the indicated concentrations was added the next day, the medium was replaced with fresh medium containing βTJ after two days, and after four days the MTS or CytoTox-Glo assays were conducted according to the manufacturer's instructions.
# Sequence of HCV RNA-directed RNA polymerase (P27958 2421-3011): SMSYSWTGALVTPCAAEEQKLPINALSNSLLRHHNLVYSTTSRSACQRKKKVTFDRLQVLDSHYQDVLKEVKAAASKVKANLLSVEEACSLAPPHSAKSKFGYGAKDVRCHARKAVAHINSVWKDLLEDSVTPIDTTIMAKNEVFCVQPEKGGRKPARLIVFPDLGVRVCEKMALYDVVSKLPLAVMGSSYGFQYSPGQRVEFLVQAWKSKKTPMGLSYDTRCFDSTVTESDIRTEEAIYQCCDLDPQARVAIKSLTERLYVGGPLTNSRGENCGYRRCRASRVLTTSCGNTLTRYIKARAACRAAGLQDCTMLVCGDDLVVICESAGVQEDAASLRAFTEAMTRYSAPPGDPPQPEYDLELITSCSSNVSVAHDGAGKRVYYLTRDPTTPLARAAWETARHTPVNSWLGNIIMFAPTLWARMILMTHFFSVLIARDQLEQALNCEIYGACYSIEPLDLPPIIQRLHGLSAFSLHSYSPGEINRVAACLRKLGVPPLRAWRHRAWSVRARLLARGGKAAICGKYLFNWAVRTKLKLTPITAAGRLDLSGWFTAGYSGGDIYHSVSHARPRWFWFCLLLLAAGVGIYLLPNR
structure (smiles),measurement,setting,value
Cc1c2cc(O)c(=O)cc-2oc2cc(O)c(O)cc12 [Compound 8],Inhibition of poly-G production by HCV RNA polymerase,[1],do not significantly inhibit
"NCc1ccc(-c2ccc(Cc3cc(=O)n(O)c4ncccc34)cc2)cc1 [Compound 12, napthyridinone]",Block of viral replication in Huh7 cells,HBV genotype A,~93%
same,"Inhibition of HBV replication, genotype D isolate",HBV genotype D,Very few of the most slowly-migrating double-stranded nucleic acids accumulated
same,IC50,[2],2.5 µM
"CC(C)c1ccc(O)c(=O)c(O)c1 [Compound 46, beta-thujaplicinol]",CC50,CEM-SS cells,2.3 µM
same,Activity against HIV replication in cells,HIV,inactive
same,CC50,Huh7 cells,> 150 µM

# — US10329542B2, “HBV RNAse H purification and enzyme inhibitors” (Saint Louis University, priority 2012, dated 2019)
